Assay results reported in patent publication US12049445B2, “Compounds having S1P5 receptor agonistic activity” (ONO PHARMACEUTICAL CO., LTD., priority 2018, dated 2024).
Structures can show the parent of a compound that is named as a salt.

Legend:
human S1P1 (EDG-1) [1] = molecular target: T1, human S1P1 (EDG-1) (Homo sapiens, UniProt P21453); experiment: S1P receptor agonist activity by monitoring intracellular calcium concentration (S1P1); assay type: cell-based; settings: for EC50: CHO cells overexpressing human S1P1 (EDG-1) gene, intracellular calcium increase, S1P signal = 100% activity
Method: (§1) Chinese hamster ovary (CHO) cells in which each of a human S1P1 (EDG-1) gene or a human S1P5 (EDG-8) gene was overexpressed were cultured in Ham's F-12 medium containing 10% FBS (fetal bovine serum), penicillin/streptomycin, and geneticin (0.25 mg/mL). The culture medium was replaced one day before performing a calcium assay and on the day of the assay. Four hours after the culture medium replacement, the culture medium was removed, and washing was performed once with phosphate-buffered saline. After the cells were detached by adding 0.05% trypsin EDTA, the cells were recovered by adding a culture medium. The recovered cell suspension was centrifuged to remove the supernatant, and the cells were suspended in phosphate-buffered saline, and the cell number was counted. The cells were suspended in a Hanks solution containing Calcium 6 Assay Reagent (manufactured by Molecular Devices, LLC), 20 mM HEPES, and 2.5 mM probenecid at a cell density of 1.1×10^6 cells/mL, and the suspension was incubated at 37° C. for about 1 hour. Thereafter, the supernatant was removed by centrifugation, and the cells were suspended in a Hanks solution containing 20 mM HEPES, 2.5 mM probenecid, and 0.1% BSA at a cell density of 2.2×10^6 cells/mL. The suspension was inoculated in a 96-well plate at 80 μL/well. The plate was set on a fluorescent drug screening system (FDSS 6000), and the compound and S1P were sequentially added thereto, and an increase in intracellular calcium concentration between before and after the addition was measured at an excitation wavelength of 480 nm and a fluorescence wavelength of 540 nm. The increase in intracellular calcium concentration was evaluated by the signal intensity at the fluorescence wavelength, and the agonist activity of each compound was calculated by assuming the signal intensity when S1P was added instead of the compound to be 100% activity.

human S1P5 (EDG-8) = human S1P5 (EDG-8) (Homo sapiens, UniProt Q9H228); experiment: S1P receptor agonist activity by monitoring intracellular calcium concentration (S1P5); assay type: cell-based; settings: for EC50: CHO cells overexpressing human S1P5 (EDG-8) gene, intracellular calcium increase, S1P signal = 100% activity; for balance of S1P5 receptor agonist activity against S1P1 receptor agonist activity (in words): comparison of calcium assay agonist activities at S1P1 and S1P5
Method: as §1

human S1P1 (EDG-1) [2] = molecular target: T1, human S1P1 (EDG-1); experiment: Inhibition of binding of [33P]-S1P to S1P1, CHO membrane fraction; settings: membrane fraction of CHO cells overexpressing human S1P1; room temperature 60 minutes; read-out: inhibitory activity (IC50 value) for binding of [33P]-S1P to S1P1
Method: (§2) A reaction was carried out in a 96-well microplate by using a membrane fraction of Chinese hamster ovary (CHO) cells each of which was made to overexpress human S1P1 (EDG-1) gene or human S1P5 gene respectively, in an amount of the membrane fraction of 60 μg protein/mL. To each of the well, 100 μL of a vehicle (DMSO) solution or a compound solution at a two-fold concentration each diluted with Binding Buffer (50 mmol/L Tris pH 7.5, 5 mmol/L MgCl2, 0.5% BSA, Complete EDTA free (1 tablet/50 mL)) and 50 μL of 0.16 nmol/L [^33P]-S1P (manufactured by American Radiolabeled Chemicals, Inc.) diluted with Binding Buffer were added, and thereafter, the membrane fraction solution (50 μL) was added thereto, and a reacted was allowed to proceed at room temperature for 60 minutes. After the reaction, suction filtration was carried out by using a 96-well Unifilter, followed by washing with a washing buffer (50 mmol/L Tris pH 7.5, 0.5% BSA) ([…]), and then dried at 50 to 60° C. for 30 to 60 minutes. MicroScint (trade name) 20 (50 μL/well) was added thereto, and the plate was covered with TopSeal-A, and then a radioactivity was measured with TopCount (manufactured by PerkinElmer Co., Ltd.)
(§3) The compound concentration at which 50% of the specific binding of [^33P]-S1P to human S1P1 and human S1P5 was replaced (IC50 value) was used as an evaluation item. […]

human S1P5 = molecular target: T2, human S1P5 (Homo sapiens, UniProt Q9H228); experiment: Inhibition of binding of [33P]-S1P to S1P5, CHO membrane fraction; settings: membrane fraction of CHO cells overexpressing human S1P5; room temperature 60 minutes; read-out: inhibitory activity (IC50 value) for binding of [33P]-S1P to S1P5
T2 construct: expressed in transfected cells; host or cells: membrane fraction of Chinese hamster ovary (CHO) cells
Method: as §2, §3

T1 sequence (P21453 whole entry): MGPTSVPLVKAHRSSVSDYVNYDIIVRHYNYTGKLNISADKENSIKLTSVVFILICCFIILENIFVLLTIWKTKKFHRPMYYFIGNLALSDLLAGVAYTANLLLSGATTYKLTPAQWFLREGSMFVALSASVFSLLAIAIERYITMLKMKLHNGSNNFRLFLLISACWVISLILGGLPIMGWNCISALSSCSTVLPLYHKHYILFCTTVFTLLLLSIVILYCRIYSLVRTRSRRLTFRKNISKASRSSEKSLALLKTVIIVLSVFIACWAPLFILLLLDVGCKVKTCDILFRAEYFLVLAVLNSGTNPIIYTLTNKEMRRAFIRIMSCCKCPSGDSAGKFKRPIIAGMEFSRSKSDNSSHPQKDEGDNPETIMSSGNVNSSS
Chain of human S1P5 (EDG-8) (Q9H228 whole entry): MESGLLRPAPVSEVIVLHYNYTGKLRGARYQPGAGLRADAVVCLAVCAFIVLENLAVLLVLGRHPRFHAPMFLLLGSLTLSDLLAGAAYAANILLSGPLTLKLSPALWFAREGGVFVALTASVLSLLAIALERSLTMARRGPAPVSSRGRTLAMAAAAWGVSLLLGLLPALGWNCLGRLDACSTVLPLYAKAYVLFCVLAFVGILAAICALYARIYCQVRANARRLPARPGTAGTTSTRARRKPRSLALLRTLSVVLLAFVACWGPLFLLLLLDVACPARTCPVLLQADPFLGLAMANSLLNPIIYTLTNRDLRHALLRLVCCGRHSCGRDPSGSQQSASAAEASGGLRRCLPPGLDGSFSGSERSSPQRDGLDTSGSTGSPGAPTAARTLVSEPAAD
T2 sequence (Q9H228 whole entry): as above

SMILES	EC50 (human S1P1 (EDG-1) [1])	EC50 (human S1P5 (EDG-8))	other results
CCCCCCCCOc1ccc2c(c1)CCC(CN1CC(C(=O)O)C1)=C2C.Cl [Comparative Compound A, 1-{[1-methyl-6-(octyloxy)-3,4-dihydro-2-naphthalenyl]methyl}-3-azetidinecarboxylic acid hydrochloride, reference compound]	< 0.003 µM	0.003 µM	balance of S1P5 receptor agonist activity against S1P1 receptor agonist activity (in words) (human S1P5 (EDG-8)): S1P1 receptor agonist activity was stronger than the S1P5 receptor agonist activity
CCCc1ccc(COc2ccc3c(c2)CCC(CN2CC(C(=O)O)C2)=C3C)c(OC)c1 [Comparative Compound B, 1-({6-[(2-methoxy-4-propylbenzyl)oxy]-1-methyl-3,4-dihydro-2-naphthalenyl}methyl)-3-azetidinecarboxylic acid, reference compound]	0.0002 µM	0.002 µM	balance of S1P5 receptor agonist activity against S1P1 receptor agonist activity (in words) (human S1P5 (EDG-8)): S1P1 receptor agonist activity was stronger than the S1P5 receptor agonist activity
CC1=C(CNCCC(=O)O)CCc2cc(OCCCC3CCCCC3)ccc21 [Comparative Compound C, 3-({[6-(3-cyclohexylpropoxy)-1-methyl-3,4-dihydro-2-naphthalenyl]methyl}amino)propanoic acid hydrochloride]			IC50 (human S1P1 (EDG-1) [2]): 0.001 µM; IC50 (human S1P5): 0.0085 µM
COc1ccc2c(c1)C[C@H](C)C(CN1CC(F)(C(=O)O)C1)=C2 [Comparative Example, (S)-3-fluoro-1-[(6-methoxy-3-methyl-3,4-dihydronaphthalen-2-yl)methyl]azetidine-3-carboxylic acid, reference compound]	> 10 µM	> 10 µM	S1P1 receptor agonist activity (in words) (human S1P1 (EDG-1) [1]; calcium assay, CHO cells overexpressing human S1P1): did not have; S1P5 receptor agonist activity (in words) (human S1P5 (EDG-8); calcium assay, CHO cells overexpressing human S1P5): did not have
C[C@H]1Cc2cc(OCCCC(F)(F)F)ccc2C=C1CN1CC(C(=O)O)C1 [Example 15 (34), 1-[[(3S)-3-methyl-6-(4,4,4-trifluorobutoxy)-3,4-dihydronaphthalen-2-yl]methyl]azetidine-3-carboxylic acid]	> 3 µM	0.02 µM	
C[C@H]1Cc2cc(OCCC(F)=C(F)F)ccc2C=C1CN1CC(F)(C(=O)O)C1 [Example 15 (52), 3-fluoro-1-[[(3S)-3-methyl-6-(3,4,4-trifluorobut-3-enoxy)-3,4-dihydronaphthalen-2-yl]methyl]azetidine-3-carboxylic acid]	> 3 µM	0.015 µM	
[2H]C([2H])([2H])C([2H])([2H])C([2H])([2H])C([2H])([2H])Oc1ccc2c(c1)C[C@H](C)C(CN1CC(C(=O)O)C1)=C2 [Example 15 (70), 1-[[(3S)-3-methyl-6-(1,1,2,2,3,3,4,4,4-nonadeuteriobutoxy)-3,4-dihydronaphthalen-2-yl]methyl]azetidine-3-carboxylic acid]	> 3 µM	0.012 µM	
C[C@H]1Cc2cc(OCCCC(F)(F)F)ccc2C=C1CN1CC[C@@H](C(=O)O)C1 [Example 15 (72), (3R)-1-[[(3S)-3-methyl-6-(4,4,4-trifluorobutoxy)-3,4-dihydronaphthalen-2-yl]methyl]pyrrolidine-3-carboxylic acid]	> 3 µM	0.022 µM	
C[C@H]1Cc2cc(OC/C=C/C(F)(F)F)ccc2C=C1CN1CC(F)(C(=O)O)C1 [Example 15 (82), 3-fluoro-1-[[(3S)-3-methyl-6-[(E)-4,4,4-trifluorobut-2-enoxy]-3,4-dihydronaphthalen-2-yl]methyl]azetidine-3-carboxylic acid]	> 30 µM	0.009 µM	
C[C@H]1Cc2cc(OCCC(F)(F)F)ccc2C=C1CN1CC(F)(C(=O)O)C1 [Example 15 (86), 3-fluoro-1-{[(3S)-3-methyl-6-(3,3,3-trifluoropropoxy)-3,4-dihydro-2-naphthalenyl]methyl}-3-azetidinecarboxylic acid]	> 30 µM	0.026 µM	
CCCCCOc1ccc2c(c1)C[C@H](C)C(CN1CC(C(=O)O)C1)=C2 [Example 15, 1-[((3S)-3-methyl-6-pentoxy-3,4-dihydronaphthalen-2-yl)methyl]azetidine-3-carboxylic acid]	> 3 µM	0.003 µM	
CC(N[C@H]1C[C@@H](C(=O)O)C1)C1=Cc2ccc(OCCCC(F)(F)F)cc2C[C@@H]1C (stereo partly drawn) [Example 47 (2), cis-3-({1-[(3S)-3-methyl-6-(4,4,4-trifluorobutoxy)-3,4-dihydro-2-naphthalenyl]ethyl}amino)cyclobutanecarboxylic acid]	> 30 µM	1.1 µM	
CCCOCc1ccc2c(c1)C[C@H](C)C(CN1CC(C(=O)O)C1)=C2 [Example 57 (2), 1-{[(3S)-3-methyl-6-(propoxymethyl)-3,4-dihydro-2-naphthalenyl]methyl}-3-azetidinecarboxylic acid]	> 30 µM	0.098 µM	
